Entries after “also recorded” stand apart in the source; their conditions may differ.
Experiments:
[1] = test system: SKOV-3 cells; assay: Metabolic labeling of SKOV-3 cells with 13C-2-acetyl MAGE; assay type: cell-based, human; details: 10 μM 13C-2-acetyl MAGE, 1 h
Method: Cells were cultured and maintained as described above. Cells used for 13C-2-acetyl MAGE experiments were incubated in BSA-RPMI containing inhibitor or vehicle for […]. BSA-RPMI medium was then removed, supplemented with 10 μM 13C-2-acetyl MAGE or DMSO, and re-applied to cells. After incubation for 1 h the cells were harvested and metabolomes were analyzed by LC-MS. 13C-MAGE experiments were conducted by addition of 13C-MAGE or DMSO containing BSA-RPMI directly after washing with PBS. Cells were then incubated for 4 h, harvested, and analyzed by LC-MS.

[2] = test system: background 2-thioacetyl MAGE hydrolyzing activity in membrane proteomes; assay: Background 2-thioacetyl MAGE hydrolyzing activity in membrane proteomes; assay type: biochemical; details: FIG. 14
Method: KIAA1363-transfected cell lines were used for substrate-based enzyme activity assays. Membrane proteomes were adjusted to 0.5 mg/ml in 50 mM tris pH 7.4 buffer containing 5 mM CHAPS detergent. Immediately prior to the assay, 5,5′-dithiobis-(2-nitrobenzoic acid) (DTNB, Sigma) was added at 0.5 mM to the membrane proteome to prepare the Assay Buffer. For analysis of inhibitors, 1 ul of a 50× inhibitor solution in DMSO was added to 48 ul of Assay Buffer and preincubated for 20 min at RT. The substrate 2-thioacetyl MAGE (Cayman Chemical) was prepared by evaporating off the original solvent under nitrogen and redissolving the residue in DMSO. 1 ul of 5 mM 2-thioacetyl MAGE stock is added to each assay well to begin the assay. Absorbance is determined at A405 nm.
The background 2-thioacetyl MAGE hydrolyzing activity in membrane proteomes that is not inhibited by AS-115 is inhibited by the broad serine protease inhibitor PMSF (FIG. 14). The IC50 of AS-115 was measured using the 2-thioacetyl MAGE substrate-based assay with Flag-KIAA1363/293T cell membrane proteome (FIG. 15).

[3] = test system: other serine hydrolase activities; assay: In situ competitive ABPP with FP-rhodamine, other serine hydrolases; assay type: cell-based, human; details: SKOV-3 cells treated in culture with AS115 (0-10 μM), 4 h
Method: (§1) Human ovarian cancer cell lines were obtained form the National Cancer Institute's Developmental Therapeutics Program. The melanoma lines C8161 and MUM-2B were obtained form Mary Hendrix. Cells were maintained in RPMI medium 1640 with 10% (v/v) fetal calf serum at 37° C. in a humidified atmosphere of 5% CO2/95% air. At approximately 80% confluency, cells were trypsinized, counted with the aid of a hemocytometer, and 2.5×10^6 cells were plated in 6 cm dishes. 20 h after plating cells were washed twice with PBS and supplemented with serum free RPMI containing 0.5% BSA (Sigma)(BSA-RPMI) with AS115 (0.01-10 μM) or vehicle (DMSO) at 0.1%. After incubation for 4 h the cells were harvested and analyzed by ABPP or LC-MS.
[…]. Cells were washed twice and scraped in ice-cold PBS. […] Proteomes protein concentrations were determined by a protein assay kit (Bio-Rad), adjusted to a final concentration of 1 mg/mL in Tris buffer, and treated with 2 μM FP-rhodamine for 30 min at room temperature (50 μL total reaction volume). […] Reactions were quenched with one volume of standard 2×SDS/PAGE loading buffer (reducing), separated by SDS/PAGE (10% acrylamide) and visualized in-gel with a Hitachi FMBio Ile flatbed fluorescence scanner (MiraiBio). Integrated band intensities were calculated for the labeled proteins and averaged from 3 independent cell samples to determine the level of each enzyme activity.

[4] = test system: SKOV-3 cells; assay: Untargeted LC-MS comparative metabolomics of inhibitor-treated cells; assay type: cell-based, human; details: 4 h
Method: (§2) The following LC-MS conditions were used for analysis of cancer cell metabolomes. Cell pellets were harvested by scraping, isolated by centrifugation at 1,400×g, and dounce-homogenized in 4 mL of a 2:1:1 mixture of chloroform:methanol:Tris buffer (50 mM Tris*HCl, pH 8.0). Samples that were analyzed by targeted LC-MS were homogenized in the presence of the following synthetic standards: C15:0 MAG (50 pmol), C17:0 LPA (50 pmol), and 13C-C16:0 MAGE (25 pmol). Organic and aqueous layers were separated by centrifugation at 1,260×g for 5 min. The organic layer was then removed, dried under a stream of N2, and re-solubilized in 100 μL of chloroform, of which 30 μL was analyzed by LC-MS. Extraction of LPA was performed by acidifying the remaining aqueous layer to a final concentration of 5% formic acid, followed by the addition of 2 mL of chloroform. The mixture was vortexed, the organic layer removed, concentrated to dryness, and dissolved in 100 μL of chloroform, of which 30 μL was analyzed by LC-MS.
(§3) LC-MS analysis was performed using an Agilent 1100 LC-MSD SL instrument. […] Mobile phase A was composed of a 95:5 ratio of water:methanol and mobile phase B consisted of 2-propanol, methanol, and water in a 60:35:5 ratio. Solvent modifiers such as 0.1% formic acid and 0.1% ammonium hydroxide were used to assist ion formation as well as improve the LC resolution in both positive and negative ionization modes respectively. The flow rate for each run started at 0.1 mL/min for 5 min, to alleviate backpressure associated with injecting chloroform. The gradient started at 0% B and increased linearly to 100% B over the course of 40 min with a flow rate of 0.4 mL/min, followed by an isocratic gradient of 100% B for 7 min before equilibrating for 8 min at 0% B with a flow rate of 0.5 mL/min.
(§4) MS analysis was performed with an electrospray ionization (ESI) source. The capillary voltage was set to 3.0 kV and the fragmentor voltage to 100V. The drying gas temperature was 350° C., the drying gas flow rate was 10 L/min, and the nebulizer pressure was 35 psi. Untargeted data was collected using a mass range of 200-1000 Da and exported as common data format (.CDF) files for computational analysis. Differentially expressed metabolites between sample pairs were identified using the XCMS analyte profiling software (http://metlin/download) that aligns mass peaks from two LC-MS traces and quantifies the relative intensities of global metabolites (5). Significant inhibitor-sensitive peak changes were confirmed by manual quantification using the area under the peak normalized to total ion current. Targeted LC-MS measurements were made using selected ion monitoring (SIM). Peaks were quantified by measuring the area under the peak and normalized to an internal standard (C15:0 MAG) or endogenous lipid (palmitic acid). Absolute MAGE levels were estimated by comparison to a 13C-MAGE standard.
as §1
These experiments were performed using the method of untargeted liquid chromatography-mass spectrometry (LC-MS) for comparative metabolomics. Cells were treated with AS115 (10 μM) or DMSO for 4 h and analyzed by untargeted LC-MS methods. […] Relative mass signals are shown in Table 1, represented as the average values and standard error for three independent experiments.

[5] = test system: SKOV-3 cells; assay: Targeted LC-MS analysis of lipid levels in inhibitor-treated cells; assay type: cell-based, human
Method: as §2, §3, §4, §1
By extension, the m/z 345 and 347 metabolites were interpreted to represent the C18:1 and C18:0 MAGEs, respectively. […] MAGE levels were measured by targeted LC-MS analysis of SKOV-3 cells treated with AS115 (5 μM) or DMSO for 4 h using a 13C-C16:0 MAGE internal standard. Values are represented as pmol/10^6 cells. […]

[6] = test system: MUM-2B melanoma cells; assay: LC-MS MAGE lipid levels in inhibitor-treated melanoma cells; assay type: cell-based, human; details: compared to DMSO controls
Method: as §2, §3
(§5) MS analysis was performed with an electrospray ionization (ESI) source. […] Differentially expressed metabolites between sample pairs were identified using the XCMS analyte profiling software (http://metlin/download) that aligns mass peaks from two LC-MS traces and quantifies the relative intensities of global metabolites (5). Significant inhibitor-sensitive peak changes were confirmed by manual quantification using the area under the peak normalized to total ion current. […] Peaks were quantified by measuring the area under the peak and normalized to an internal standard (C15:0 MAG) or endogenous lipid (palmitic acid). […]
(§6) Human ovarian cancer cell lines were obtained form the National Cancer Institute's Developmental Therapeutics Program. […] At approximately 80% confluency, cells were trypsinized, counted with the aid of a hemocytometer, and 2.5×10^6 cells were plated in 6 cm dishes. […] After incubation for 4 h the cells were harvested and analyzed by ABPP or LC-MS. […]

[7] = test system: C8161 melanoma cells; assay: as above; assay type: cell-based, human; details: compared to DMSO controls
Method: as §2, §3, §5, §6

## CCCCOCC1CCCCC1COCCNC(=O)Oc1ccccc1F (stereo not drawn) [AS115]
[1]
  Levels of 2-acetyl MAGE as judged by metabolic labeling: significantly stabilized
  PAF level in metabolic labeling experiments: accumulation
[2]
  Background 2-thioacetyl MAGE hydrolyzing activity: not inhibited
[3]
  IC50: > 10 µM
[4]; 10 μM
  Levels of lipophilic metabolites (m/z 317, 345, and 347): substantial reduction
  Levels of typical lipid species (free fatty acids, phospholipids, ceramides, monoacylglycerides): none of which were significantly altered
[4]; AS115 10 μM or DMSO
  Relative mass signal DMSO/AS115, Ceramide C16: 0.53
  Relative mass signal DMSO/AS115, Ceramide C18: 0.73
  Relative mass signal DMSO/AS115, FFA C14: 0.69
  Relative mass signal DMSO/AS115, FFA C16: 0.69
  Relative mass signal DMSO/AS115, FFA C18: 0.76
  Relative mass signal DMSO/AS115, FFA C18:1: 0.56
  Relative mass signal DMSO/AS115, FFA C20:4: 1.04
  Relative mass signal DMSO/AS115, MAG C16: 1.00
  Relative mass signal DMSO/AS115, MAG C18:1: 0.83
  Relative mass signal DMSO/AS115, PA C32: 1.01
  Relative mass signal DMSO/AS115, PA C34: 1.41
  Relative mass signal DMSO/AS115, PA C34:1: 0.95
  Relative mass signal DMSO/AS115, PA C36:1: 0.99
  Relative mass signal DMSO/AS115, PA C36:2: 0.74
  Relative mass signal DMSO/AS115, PC C32: 1.07
  Relative mass signal DMSO/AS115, PC C34: 0.96
  Relative mass signal DMSO/AS115, PC C34:1: 1.01
  Relative mass signal DMSO/AS115, PC C36:1: 0.68
  Relative mass signal DMSO/AS115, PC C36:2: 1.07
  Relative mass signal DMSO/AS115, PE C32: 1.13
  Relative mass signal DMSO/AS115, PE C34: 0.94
  Relative mass signal DMSO/AS115, PE C34:1: 0.84
  Relative mass signal DMSO/AS115, PE C36:1: 0.94
  Relative mass signal DMSO/AS115, PE C36:2: 0.61
  Relative mass signal DMSO/AS115, PG C32: 0.78
  Relative mass signal DMSO/AS115, PG C34: 0.95
  Relative mass signal DMSO/AS115, PG C34:1: 0.98
  Relative mass signal DMSO/AS115, PG C36:1: 0.89
  Relative mass signal DMSO/AS115, PG C36:2: 1.04
  Relative mass signal DMSO/AS115, PS C32: 1.06
  Relative mass signal DMSO/AS115, PS C34: 1.02
  Relative mass signal DMSO/AS115, PS C34:1: 0.96
  Relative mass signal DMSO/AS115, PS C36:1: 0.99
  Relative mass signal DMSO/AS115, PS C36:2: 1.13
[4]; AS115 10 μM or DMSO, p<0.001
  Relative mass signal DMSO/AS115, MAGE C16: 5.29
  Relative mass signal DMSO/AS115, MAGE C18: 5.86
  Relative mass signal DMSO/AS115, MAGE C18:1: 4.42
[5]
  Basal levels of 2-acetyl MAGE: not significantly altered
  Basal levels of PAF: not significantly altered
[5]; 5 μM, 4 h, 13C-C16:0 MAGE internal standard, DMSO 12.1 ± 0.4
  Absolute level of MAGE lipid C18:1: 4.0 ± 0.7 pmol/10^6 cells
[5]; 5 μM, 4 h, 13C-C16:0 MAGE internal standard, DMSO 39.5 ± 3.7
  Absolute level of MAGE lipid C18:0: 7.6 ± 2.3 pmol/10^6 cells
[5]; 5 μM, 4 h, 13C-C16:0 MAGE internal standard, DMSO 94.7 ± 6.6
  Absolute level of MAGE lipid C16:0: 19.3 ± 2.2 pmol/10^6 cells
[5]; compared to DMSO controls
  Levels of MAGE lipids: significantly lowered; also recorded: reduce
[5]; vs vehicle, FIG. 7B
  Levels of alkyl-LPA: reduce
  Levels of alkyl-LPC: reduce
[6]
  Levels of MAGE lipids: significantly reduced
[7]
  Levels of MAGE lipids: significantly reduced

## O=S(=O)(F)Cc1ccccc1 [PMSF, reference compound]
[2]
  Background 2-thioacetyl MAGE hydrolyzing activity: inhibited
